This note sets out measurements from patent EP1173432B9, “PIPERIDINE-INDOLE COMPOUNDS HAVING 5-HT6 AFFINITY” (NPS Allelix Corp., priority 1999, dated 2000).

One test concerns the target T1, human 5-HT6 receptor (Homo sapiens, UniProt P50406).
T1 construct: expressed in transfected cells; host or cells: recombinant cells
In words: Binding affinity for the 5-HT6 receptor (3H-LSD displacement, membranes of recombinant cells). The following applies: 3H-LSD radioligand, 60 minute incubation at 37 °C. How it is done: All of the compounds of the invention were evaluated using cell types receptive specifically to the 5-HT6 receptor (for cloning and characterization of the human 5-HT6 receptor see Kohen, et al. J. Neurochemistry, 66, 1996: 47-56). […] After a 60 minute incubation at 37 °C, the incubation was terminated by vacuum filtration. The filters were washed with buffer and the filters were counted for radioactivity using liquid scintillation spectrometry. The affinity of the test compound for the 5-HT6 receptor was determined by computer-assisted analysis of the data and determining the amount of the compound necessary to inhibit 50% of the binding of the radioligand to the receptor. Concentrations ranging from 10^-11 M to 10^-5 M of the test compound were evaluated.

For the next test, the target named is 5-HT7 receptors (Homo sapiens, UniProt P34969). In words: Binding selectivity for 5-HT6 relative to the 5-HT7 receptor. The following applies: selectivity 5-HT6 over 5-HT7.
5-HT7 receptors, sequence (P34969 whole entry): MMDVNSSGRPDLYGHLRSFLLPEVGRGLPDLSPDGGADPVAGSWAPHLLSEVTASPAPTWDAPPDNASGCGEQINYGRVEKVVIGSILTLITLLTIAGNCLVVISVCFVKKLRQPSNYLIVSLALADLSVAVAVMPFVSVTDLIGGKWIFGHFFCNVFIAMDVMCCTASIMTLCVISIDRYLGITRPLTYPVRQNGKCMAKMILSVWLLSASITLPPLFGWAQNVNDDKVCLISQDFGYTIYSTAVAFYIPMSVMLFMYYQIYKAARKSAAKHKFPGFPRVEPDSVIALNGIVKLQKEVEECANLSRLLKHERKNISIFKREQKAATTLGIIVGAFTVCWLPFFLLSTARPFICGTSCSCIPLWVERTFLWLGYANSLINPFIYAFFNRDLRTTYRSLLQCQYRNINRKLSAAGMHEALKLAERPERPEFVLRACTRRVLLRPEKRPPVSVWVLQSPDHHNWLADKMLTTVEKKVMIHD
In another test the target is T2, human 5-HT2C (Homo sapiens, UniProt P28335).
T2 sequence (P28335 33-458): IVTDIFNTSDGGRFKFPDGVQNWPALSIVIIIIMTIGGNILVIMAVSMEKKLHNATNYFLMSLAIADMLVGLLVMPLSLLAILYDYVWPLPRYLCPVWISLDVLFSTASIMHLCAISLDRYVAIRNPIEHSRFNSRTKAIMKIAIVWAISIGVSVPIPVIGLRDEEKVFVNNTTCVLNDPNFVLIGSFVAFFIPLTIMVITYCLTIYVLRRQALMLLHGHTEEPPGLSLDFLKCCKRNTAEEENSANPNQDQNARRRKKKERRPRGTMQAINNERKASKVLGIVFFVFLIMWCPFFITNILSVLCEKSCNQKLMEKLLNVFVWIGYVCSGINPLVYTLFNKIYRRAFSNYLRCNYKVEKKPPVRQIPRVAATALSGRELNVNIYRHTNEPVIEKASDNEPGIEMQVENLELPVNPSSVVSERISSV
In words: Binding selectivity for 5-HT6 relative to the 5-HT2C receptor. The following applies: selectivity 5-HT6 over 5-HT2C.

Counter-ions that a name gives are not always drawn.

T1 sequence (P50406 whole entry): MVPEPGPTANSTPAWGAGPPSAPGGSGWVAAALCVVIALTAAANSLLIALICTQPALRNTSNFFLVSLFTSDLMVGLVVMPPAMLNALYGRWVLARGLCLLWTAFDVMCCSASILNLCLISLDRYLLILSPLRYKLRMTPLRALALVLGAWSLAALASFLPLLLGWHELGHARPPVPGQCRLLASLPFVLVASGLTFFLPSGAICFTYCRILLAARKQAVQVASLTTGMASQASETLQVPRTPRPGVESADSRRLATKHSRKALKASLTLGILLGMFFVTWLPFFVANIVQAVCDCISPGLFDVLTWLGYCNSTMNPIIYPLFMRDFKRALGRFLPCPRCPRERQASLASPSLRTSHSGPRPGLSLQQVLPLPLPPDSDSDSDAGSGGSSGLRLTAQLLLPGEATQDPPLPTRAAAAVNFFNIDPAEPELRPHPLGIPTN

In the case of `CN1CC=C(c2cn(S(=O)(=O)c3ccccc3)c3ccccc23)CC1` [Example 4a, 3-(1-Methyl-1,2,3,6-tetrahydro-4-pyridinyl)-1-phenylsulfonylindole], at human 5-HT6 receptor, the inhibition constant Ki was at most 5 nM.

For `CN1CC=C(c2cn(S(=O)(=O)c3cccc4ccccc34)c3c(F)cc(F)cc23)CC1` [Example 4aaa, 5,7-Difluoro-3-(1-methyl-1,2,3,6-tetrahydro-4-pyridinyl)-1-(1-naphthylsulfonyl)indole], the inhibitory constant (Ki) at human 5-HT6 receptor was at most 5 nM. For the compound `CN1CC=C(c2cn(S(=O)(=O)c3ccc(F)cc3)c3ccc(Cl)cc23)CC1` [Example 4gg, 5-Chloro-1-(4-fluorophenylsulfonyl)-3-(1-methyl-1,2,3,6-tetrahydro-4-pyridinyl)indole], the Ki on human 5-HT6 receptor is at most 5 nM. Take `CN1CC=C(c2cn(S(=O)(=O)c3ccc(Cl)cc3)c3c(F)cc(F)cc23)CC1` [Example 4zz, 1-(4-Chlorophenylsulfonyl)-5,7-difluoro-3-(1-methyl-1,2,3,6-tetrahydro-4-pyridinyl)indole]: the Ki at human 5-HT6 receptor was at most 5 nM. For `CN1CC=C(c2cn(S(=O)(=O)c3ccc(Cl)cc3)c3ccc(OC(F)(F)F)cc23)CC1` [Example 4jj, 1-(4-Chlorophenylsulfonyl)-3-(1-methyl-1,2,3,6-tetrahydro-4-pyridinyl)-5-trifluoromethoxyindole], the Ki on human 5-HT6 receptor was at most 5 nM. In the case of `CN1CC=C(c2cn(S(=O)(=O)c3ccc(Br)cc3)c3ccc(F)cc23)CC1` [Example 4d, 1-(4-Bromophenylsulfonyl)-5-fluoro-3-(1-methyl-1,2,3,6-tetrahydro-4-pyridinyl)indole], the Ki on human 5-HT6 receptor was at most 50 nM. The same measure, in the same setting: for `CN1CC=C(c2cn(S(=O)(=O)c3cc(Cl)ccc3Cl)c3ccc(F)cc23)CC1` [Example 4e, 5-Fluoro-1-(2,5-dichlorophenylsulfonyl)-3-(1-methyl-1,2,3,6-tetrahydro-4-pyridinyl)indole] the value was at most 50 nM; for `CN1CC=C(c2cn(S(=O)(=O)c3ccc(F)cc3)c3cc(Br)ccc23)CC1` [Example 4k, 6-Bromo-1-(4-fluorophenylsulfonyl)-3-(1-methyl-1,2,3,6-tetrahydro-4-pyridinyl)-indole], at most 50 nM; for `Cc1cc(C)c(S(=O)(=O)n2cc(C3=CCN(C)CC3)c3cc(F)ccc32)c(C)c1` [Example 4g, 5-Fluoro-3-(1-methyl-1,2,3,6-tetrahydro-4-pyridinyl)-1-(2,4,6-trimethylphenylsulfonyl)indole], at most 50 nM. On the same count and under the same terms, in the case of `Cc1ccc(S(=O)(=O)n2cc(C3=CCN(C)CC3)c3cc(F)cc(F)c32)cc1` [Example 4ww, 5,7-Difluoro-3-(1-methyl-1,2,3,6-tetrahydro-4-pyridinyl)-1-(4-methylphenylsulfonyl)indole] it was at most 5 nM. Same read-out and setting: in the case of `CN1CC=C(c2cn(S(=O)(=O)c3ccc(Cl)c([N+](=O)[O-])c3)c3ccc(F)cc23)CC1` [Example 4f, 1-(4-Chloro-3-nitrophenylsulfonyl)-5-fluoro-3-(1-methyl-1,2,3,6-tetrahydro-4-pyridinyl)indole] it was at most 50 nM; in that of `Cc1ccc(S(=O)(=O)n2cc(C3=CCN(C)CC3)c3cc(OC(F)(F)F)ccc32)cc1` [Example 4kk, 1-(4-Methylphenylsulfonyl)-3-(1-methyl-1,2,3,6-tetrahydro-4-pyridinyl)-5-trifluoromethoxyindole], at most 5 nM; in that of `CN1CC=C(c2cn(S(=O)(=O)c3ccc(F)cc3)c3ccccc23)CC1` [Example 4c, 1-(4-Fluorophenylsulfonyl)-3-(1-methyl-1,2,3,6-tetrahydro-4-pyridinyl)indole], at most 5 nM. For `CN1CC=C(c2cn(S(=O)(=O)c3cccc4ccccc34)c3ccc(F)cc23)CC1` [Example 4ee, 5-Fluoro-3-(1-methyl-1,2,3,6-tetrahydro-4-pyridinyl)-1-(1-naphthylsulfonyl)indole], the Ki at human 5-HT6 receptor is at most 5 nM.

Regarding `Cc1ccc(S(=O)(=O)n2cc(C3=CCN(C)CC3)c3cc(F)ccc32)cc1` [Example 3b, 5-Fluoro-1-(4-methylphenylsulfonyl)-3-(1-methyl-1,2,3,6-tetrahydro-4-pyridinyl)indole], the “fold greater affinity for the human 5-HT6 receptor relative to the human 5-HT7 receptor” value on 5-HT7 receptors is listed as at least 60 fold. The Ki on human 5-HT6 receptor was at most 5 nM. In addition, the “fold greater affinity for the human 5-HT6 receptor relative to the human 5-HT2C receptor” value on human 5-HT2C was at least 60 fold.

Regarding `Cc1ccc(S(=O)(=O)n2cc(C3=CCN(C)CC3)c3cc(C(F)(F)F)ccc32)cc1` [Example 4qq, 1-(4-Methylphenylsulfonyl)-3-(1-methyl-1,2,3,6-tetrahydro-4-pyridinyl)-5-trifluoromethylindole hydrochloride], the inhibitory constant (Ki) at human 5-HT6 receptor was at most 50 nM. Turning to `CN1CC=C(c2cn(S(=O)(=O)c3ccc4ccccc4c3)c3ccc(F)cc23)CC1` [Example 4ff, 5-Fluoro-3-(1-methyl-1,2,3,6-tetrahydro-4-pyridinyl)-1-(2-naphthylsulfonyl)indole], the “fold greater affinity for the human 5-HT6 receptor relative to the human 5-HT7 receptor” value at 5-HT7 receptors was at least 60 fold. In addition, the “fold greater affinity for the human 5-HT6 receptor relative to the human 5-HT2C receptor” value on human 5-HT2C is listed as at least 60 fold.

In the case of `CN1CC=C(c2cn(S(=O)(=O)c3ccc(Cl)cc3)c3ccc(F)cc23)CC1` [Example 4bb, 1-(4-Chlorophenylsulfonyl)-5-fluoro-3-(1-methyl-1,2,3,6-tetrahydro-4-pyridinyl)indole], on 5-HT7 receptors, the “fold greater affinity for the human 5-HT6 receptor relative to the human 5-HT7 receptor” value is given as at least 60 fold. For the same compound, the inhibition constant Ki at human 5-HT6 receptor was at most 5 nM. Moreover, the “fold greater affinity for the human 5-HT6 receptor relative to the human 5-HT2C receptor” value at human 5-HT2C is given as at least 60 fold. With `CN1CC=C(c2cn(S(=O)(=O)c3ccccc3Br)c3ccc(F)cc23)CC1` [Example 4z, 1-(2-Bromophenylsulfonyl)-5-fluoro-3-(1-methyl-1,2.3,6-tetrahydro-4-pyridinyl)indole], the “fold greater affinity for the human 5-HT6 receptor relative to the human 5-HT7 receptor” value on 5-HT7 receptors is listed as at least 60 fold. Besides, the inhibitory constant (Ki) on human 5-HT6 receptor was at most 5 nM. For the same compound, at human 5-HT2C, the “fold greater affinity for the human 5-HT6 receptor relative to the human 5-HT2C receptor” value is reported as at least 60 fold.

As to `Cc1ccc(S(=O)(=O)n2cc(C3=CCN(C)CC3)c3cc(OC4CCCCC4)ccc32)cc1` [Example 4i, 5-Cyclohexyloxy-1-(4-methylphenylsulfonyl)-3-(1-methyl-1,2,3,6-tetrahydro-4-pyridinyl)indole], the “fold greater affinity for the human 5-HT6 receptor relative to the human 5-HT7 receptor” value at 5-HT7 receptors is at least 60 fold. At human 5-HT6 receptor, the Ki is at most 50 nM. Also, the “fold greater affinity for the human 5-HT6 receptor relative to the human 5-HT2C receptor” value on human 5-HT2C was at least 60 fold. As for `COc1ccc(S(=O)(=O)n2cc(C3=CCN(C)CC3)c3ccccc32)cc1` [Example 4b, 1-(4-Methoxyphenylsulfonyl)-3-(1-methyl-1,2,3,6-tetrahydro-4-pyridinyl)indole], on human 5-HT6 receptor, the inhibition constant (Ki) is at most 50 nM.

Usually Ki stands for a dissociation constant, usually derived from enzyme kinetics or from competition with a known ligand.
